Patent US20250382297A1, “INHIBITORS OF FGFR2 AND FGFR3 AND USES THEREOF” (Insilico Medicine IP Limited, priority 2022, published 2025)
Read-outs that look alike come from different tables or passages of the source.

What was measured:
[1] = biological target: FGFR2 (Homo sapiens (Human), UniProt P21802); assay: FGFR biochemical assay (LanthaScreen TR-FRET kinase assay), FGFR2
Procedure: (§1) Convert Ratio values to percent inhibition values (Percent inhibition=(max−sample Ratio)/(max−min)*100) where “min” means the Ratio of no enzyme control and “max” means the Ratio of DMSO control. • Data are analyzed and curve fitting is performed by XLFit Excel add-in version 5.4.0.8. The IC50 calculation equation is: Y=Bottom+(Top-Bottom)/(1+ (IC50/X)^HillSlope.

[2] = biological target: FGFR1 (Homo sapiens (Human), UniProt P11362); assay: FGFR biochemical assay (LanthaScreen TR-FRET kinase assay), FGFR1
Procedure: as §1

[3] = biological target: FGFR3 (Homo sapiens (Human), UniProt P22607); assay: FGFR biochemical assay (LanthaScreen TR-FRET kinase assay), FGFR3
Procedure: as §1

[4] = read-out: FGFR2 IC50, * incubation at room temperature for 60 minutes before addition of substrate solution, ATP 22 μM, FGFR2 0.01 nM
[5] = read-out: FGFR2 IC50, incubation with enzyme at room temperature for 10 minutes before substrate, ATP 22 μM, FGFR2 0.01 nM
[6] = read-out: FGFR3 IC50, incubation with enzyme at room temperature for 10 minutes before substrate, ATP 35 μM, FGFR3 0.1 nM

Sequence of FGFR1 (P11362 22-822): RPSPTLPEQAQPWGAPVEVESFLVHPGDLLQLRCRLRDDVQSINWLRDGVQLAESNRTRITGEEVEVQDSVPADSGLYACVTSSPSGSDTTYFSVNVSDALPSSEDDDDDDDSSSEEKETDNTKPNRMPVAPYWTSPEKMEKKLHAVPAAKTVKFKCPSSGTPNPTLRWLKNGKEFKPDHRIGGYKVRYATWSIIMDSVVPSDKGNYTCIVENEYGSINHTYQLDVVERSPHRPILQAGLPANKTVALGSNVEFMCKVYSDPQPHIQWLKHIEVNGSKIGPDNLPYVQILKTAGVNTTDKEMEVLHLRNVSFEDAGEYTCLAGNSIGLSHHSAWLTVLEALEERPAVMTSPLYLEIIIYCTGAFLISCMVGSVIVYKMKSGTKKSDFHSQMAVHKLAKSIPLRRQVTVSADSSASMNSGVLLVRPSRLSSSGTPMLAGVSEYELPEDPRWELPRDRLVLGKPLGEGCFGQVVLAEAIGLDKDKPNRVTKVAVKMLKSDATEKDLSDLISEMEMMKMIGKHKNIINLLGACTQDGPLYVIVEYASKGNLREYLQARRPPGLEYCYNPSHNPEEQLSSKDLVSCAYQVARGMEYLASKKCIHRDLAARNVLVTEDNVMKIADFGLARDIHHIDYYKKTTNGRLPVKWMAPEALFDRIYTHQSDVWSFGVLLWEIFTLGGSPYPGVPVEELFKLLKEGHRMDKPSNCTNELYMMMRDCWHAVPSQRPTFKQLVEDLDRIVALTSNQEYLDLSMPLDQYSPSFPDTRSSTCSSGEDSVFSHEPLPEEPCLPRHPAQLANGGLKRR
Sequence of FGFR3 (P22607 23-806): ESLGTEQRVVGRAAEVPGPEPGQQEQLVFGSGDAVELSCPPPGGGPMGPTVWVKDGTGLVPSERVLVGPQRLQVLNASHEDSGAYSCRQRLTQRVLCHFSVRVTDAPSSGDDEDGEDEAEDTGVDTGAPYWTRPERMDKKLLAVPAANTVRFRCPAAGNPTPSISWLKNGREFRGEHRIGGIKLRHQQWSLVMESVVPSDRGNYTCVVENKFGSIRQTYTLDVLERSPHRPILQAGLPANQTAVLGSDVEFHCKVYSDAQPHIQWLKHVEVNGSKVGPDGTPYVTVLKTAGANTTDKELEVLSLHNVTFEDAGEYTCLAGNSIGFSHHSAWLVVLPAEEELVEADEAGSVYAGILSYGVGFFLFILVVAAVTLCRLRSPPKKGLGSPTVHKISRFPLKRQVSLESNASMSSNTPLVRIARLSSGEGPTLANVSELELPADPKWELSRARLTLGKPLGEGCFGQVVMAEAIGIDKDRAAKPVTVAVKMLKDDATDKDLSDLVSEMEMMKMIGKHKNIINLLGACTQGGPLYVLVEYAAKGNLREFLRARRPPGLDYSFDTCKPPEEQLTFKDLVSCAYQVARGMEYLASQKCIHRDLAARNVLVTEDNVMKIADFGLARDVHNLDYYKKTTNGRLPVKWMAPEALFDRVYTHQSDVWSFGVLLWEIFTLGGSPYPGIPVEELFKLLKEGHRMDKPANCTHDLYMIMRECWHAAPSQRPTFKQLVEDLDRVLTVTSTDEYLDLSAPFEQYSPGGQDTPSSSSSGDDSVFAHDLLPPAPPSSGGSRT
Sequence of FGFR2 (P21802 22-821): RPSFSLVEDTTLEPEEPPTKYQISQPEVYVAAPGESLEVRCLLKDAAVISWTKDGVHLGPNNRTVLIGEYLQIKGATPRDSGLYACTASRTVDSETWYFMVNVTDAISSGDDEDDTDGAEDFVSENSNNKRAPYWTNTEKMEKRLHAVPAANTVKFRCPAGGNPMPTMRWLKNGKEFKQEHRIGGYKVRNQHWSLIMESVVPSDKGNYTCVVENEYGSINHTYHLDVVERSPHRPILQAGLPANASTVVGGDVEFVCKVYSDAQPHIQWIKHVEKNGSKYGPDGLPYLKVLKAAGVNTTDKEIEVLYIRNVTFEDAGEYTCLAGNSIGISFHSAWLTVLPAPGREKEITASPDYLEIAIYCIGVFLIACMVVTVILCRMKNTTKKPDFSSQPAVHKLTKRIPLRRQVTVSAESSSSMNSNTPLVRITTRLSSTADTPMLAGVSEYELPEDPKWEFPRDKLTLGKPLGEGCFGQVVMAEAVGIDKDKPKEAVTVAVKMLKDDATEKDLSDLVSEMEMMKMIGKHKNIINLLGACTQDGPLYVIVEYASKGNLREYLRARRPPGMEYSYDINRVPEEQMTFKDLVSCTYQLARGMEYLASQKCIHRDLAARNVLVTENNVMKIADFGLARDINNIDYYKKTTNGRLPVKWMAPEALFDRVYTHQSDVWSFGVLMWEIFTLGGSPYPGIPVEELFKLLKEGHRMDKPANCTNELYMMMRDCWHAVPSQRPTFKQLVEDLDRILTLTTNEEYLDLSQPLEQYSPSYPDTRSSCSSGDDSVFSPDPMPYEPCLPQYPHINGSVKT

| SMILES | IC50 [1, 4] [nM] | IC50 [2] [nM] | IC50 [3] [nM] | IC50 [1, 5] [nM] | IC50 ([3]; read-out: FGFR3 IC50, * incubation at room temperature for 60 minutes before addition of substrate solution, ATP 35 μM, FGFR3 0.1 nM) [nM] | IC50 [1] [nM] | IC50 [3, 6] [nM] | IC50 ([2]; read-out: FGFR1 IC50, incubation with enzyme at room temperature for 10 minutes before substrate, ATP 28 μM, FGFR1 0.01 nM) [nM] |
| --- | --- | --- | --- | --- | --- | --- | --- | --- |
| C=C(F)C(=O)Nc1ccc(-c2c(-c3ccc(Oc4nccc(C)n4)cc3)c(C(N)=O)c3cnc(CCO)cn23)cc1 [Example 80, 6-(4-(2-fluoroacrylamido)phenyl)-3-(2-hydroxyethyl)-7-(4-((4-methylpyrimidin-2-yl)oxy)phenyl)pyrrolo[1,2-a]pyrazine-8-carboxamide] | < 10 | 100 to 1000 | 10 to 100 | – | – | – | – | – |
| C=CC(=O)Nc1ccc(-c2c(-c3ccc(Oc4cccc(C)n4)cc3)c(C(N)=O)c3cnc(C4CN(C)C4)cn23)cc1 [Example 21, 6-(4-acrylamidophenyl)-3-(1-methylazetidin-3-yl)-7-(4-((6-methylpyridin-2-yl)oxy)phenyl)pyrrolo[1,2-a]pyrazine-8-carboxamide] | – | 100 to 1000 | 10 to 100 | < 10 | – | – | – | – |
| C=CC(=O)Nc1ccc(-c2c(-c3ccc(Oc4cccc(C)n4)cc3)c(C(N)=O)c3cccnn23)cc1 [Example 20, 7-(4-acrylamidophenyl)-6-(4-((6-methylpyridin-2-yl)oxy)phenyl)pyrrolo[1,2-b]pyridazine-5-carboxamide] | – | 10 to 100 | 10 to 100 | < 10 | – | – | – | – |
| Cc1ccnc(Oc2ccc(-c3c(C(N)=O)c4cnc(CO)cn4c3-c3ccc(NC(=O)/C=C/CN(C)C)cc3)cc2)n1 [Example 79, (E)-6-(4-(4-(dimethylamino)but-2-enamido)phenyl)-3-(hydroxymethyl)-7-(4-((4-methylpyrimidin-2-yl)oxy)phenyl)pyrrolo[1,2-a]pyrazine-8-carboxamide] | – | 10 to 100 | 10 to 100 | < 10 | – | – | – | – |
| C=C(F)C(=O)N1CCc2cc(-c3c(-c4ccc(Oc5nccc(C)n5)c(F)c4)c(C(N)=O)c4cnc(C)cn34)c(F)cc21 [Example 73, 6-(6-fluoro-1-(2-fluoroacryloyl)indolin-5-yl)-7-(3-fluoro-4-((4-methylpyrimidin-2-yl)oxy)phenyl)-3-methylpyrrolo[1,2-a]pyrazine-8-carboxamide] | < 10 | 10 to 100 | – | – | < 10 | – | – | – |
| C=CC(=O)Nc1ccc(-c2c(-c3ccc(Oc4nc(C)cs4)cc3)c(C(N)=O)c3cnccn23)cc1 [Example 19, 6-(4-acrylamidophenyl)-7-(4-((4-methylthiazol-2-yl)oxy)phenyl)pyrrolo[1,2-a]pyrazine-8-carboxamide] | – | 10 to 100 | 10 to 100 | < 10 | – | – | – | – |
| C=C(F)C(=O)Nc1ccc(-c2c(-c3ccc(Oc4nccc(C)n4)c(F)c3)c(C(N)=O)c3cc(-c4cnn(C)c4)ncn23)cc1 [Example 86, 6-(3-fluoro-4-((4-methylpyrimidin-2-yl)oxy)phenyl)-7-(4-(2-fluoroacrylamido)phenyl)-3-(1-methyl-1H-pyrazol-4-yl)pyrrolo[1,2-c]pyrimidine-5-carboxamide] | < 10 | 10 to 100 | 10 to 100 | – | – | – | – | – |
| CC#CC(=O)Nc1ccc(-c2c(-c3ccc(C(=O)NCC4(F)COC4)cc3)c(C(N)=O)c3cnc(C)cn23)cc1 [Example 65, 6-(4-(but-2-ynamido)phenyl)-7-(4-(((3-fluorooxetan-3-yl)methyl)carbamoyl)phenyl)-3-methylpyrrolo[1,2-a]pyrazine-8-carboxamide] | – | 100 to 1000 | 100 to 1000 | – | – | 10 to 100 | – | – |
| C=CC(=O)Nc1ccc(-c2c(-c3ccc(Oc4cccc(C)n4)cc3)c(C(N)=O)c3cnc(C4COC4)cn23)cc1 [Example 76, 6-(4-acrylamidophenyl)-7-(4-((6-methylpyridin-2-yl)oxy)phenyl)-3-(oxetan-3-yl)pyrrolo[1,2-a]pyrazine-8-carboxamide] | – | 10 to 100 | – | < 10 | – | – | < 10 | – |
| C=CC(=O)Nc1ccc(-c2c(-c3ccc(C(=O)NCC4(F)COC4)cc3)c(C(N)=O)c3cnc(C)cn23)cc1 [Example 64, 6-(4-acrylamidophenyl)-7-(4-(((3-fluorooxetan-3-yl)methyl)carbamoyl)phenyl)-3-methylpyrrolo[1,2-a]pyrazine-8-carboxamide] | – | 10 to 100 | – | < 10 | – | – | < 10 | – |
| C=C(F)C(=O)Nc1ccc(-c2c(-c3ccc(Oc4nccc(C)n4)c(F)c3)c(C(N)=O)c3cc(C4CC4)ncn23)cc1 [Example 105, 3-cyclopropyl-6-(3-fluoro-4-((4-methylpyrimidin-2-yl)oxy)phenyl)-7-(4-(2-fluoroacrylamido)phenyl)pyrrolo[1,2-c]pyrimidine-5-carboxamide] | < 10 | 10 to 100 | 10 to 100 | – | – | – | – | – |
| C=C(F)C(=O)Nc1ccc(-c2c(-c3ccc(Oc4nccc(C)n4)c(F)c3)c(C(N)=O)c3cc(C)ncn23)cc1 [Example 85, 6-(3-fluoro-4-((4-methylpyrimidin-2-yl)oxy)phenyl)-7-(4-(2-fluoroacrylamido)phenyl)-3-methylpyrrolo[1,2-c]pyrimidine-5-carboxamide] | < 10 | 100 to 1000 | 10 to 100 | – | – | – | – | – |
| C=CC(=O)N1CC2(CC=C(c3c(-c4ccc(Oc5nccc(C)n5)cc4)c(C(N)=O)c4cnc(C)cn34)CC2)C1 [Example 70, 6-(2-acryloyl-2-azaspiro[3.5]non-6-en-7-yl)-3-methyl-7-(4-((4-methylpyrimidin-2-yl)oxy)phenyl)pyrrolo[1,2-a]pyrazine-8-carboxamide] | – | 100 to 1000 | 100 to 1000 | – | – | 100 to 1000 | – | – |
| C=CC(=O)Nc1ccc(-c2c(-c3ccc(Oc4cccc(C)n4)cc3)c(C(N)=O)c3cnccn23)cn1 [Example 3, 6-(6-acrylamidopyridin-3-yl)-7-(4-((6-methylpyridin-2-yl)oxy)phenyl)pyrrolo[1,2-a]pyrazine-8-carboxamide] | – | – | – | < 10 | – | – | < 10 | < 10 |
| C=CC(=O)N1CC=C(c2c(-c3ccc(Oc4nccc(C)n4)c(F)c3)c(C(N)=O)c3cnc(C)cn23)CC1 [Example 101, 6-(1-acryloyl-1,2,3,6-tetrahydropyridin-4-yl)-7-(3-fluoro-4-((4-methylpyrimidin-2-yl)oxy)phenyl)-3-methylpyrrolo[1,2-a]pyrazine-8-carboxamide] | – | 10 to 100 | 10 to 100 | – | – | 10 to 100 | – | – |
| C=C(F)C(=O)Nc1ccc(-c2c(-c3ccc(Oc4nccc(C)n4)c(F)c3)c(C(N)=O)c3ccc(C)nn23)c(C)c1 [Example 94, 6-(3-fluoro-4-((4-methylpyrimidin-2-yl)oxy)phenyl)-7-(4-(2-fluoroacrylamido)-2-methylphenyl)-2-methylpyrrolo[1,2-b]pyridazine-5-carboxamide] | < 10 | 10 to 100 | 10 to 100 | – | – | – | – | – |
| C=CC(=O)Nc1ccc(-c2c(-c3ccc(Oc4cccc(C)n4)cc3)c(C(N)=O)c3cnc(OC)cn23)cc1 [Example 17, 6-(4-acrylamidophenyl)-3-methoxy-7-(4-((6-methylpyridin-2-yl)oxy)phenyl)pyrrolo[1,2-a]pyrazine-8-carboxamide] | – | 10 to 100 | 10 to 100 | < 10 | – | – | – | – |
| C=C(F)C(=O)Nc1ccc(-c2c(-c3ccc(Oc4nccc(C)n4)c(F)c3)c(C(N)=O)c3ccccn23)cc1 [Example 107, 2-(3-fluoro-4-((4-methylpyrimidin-2-yl)oxy)phenyl)-3-(4-(2-fluoroacrylamido)phenyl) indolizine-1-carboxamide] | – | 100 to 1000 | 10 to 100 | – | – | – | – | – |
